Assay results from patent publication US12054479B1, “Multicyclic compounds” (SLAP Pharmaceuticals LLC, priority 2022, dated 2024).

How the values were obtained:
PARP1 [1] = target: T1, PARP1 (Homo sapiens, UniProt P09874); assay: cell-based assay (Table 1); proliferation assay (PARP inhibitors) in DLD-1 wt and DLD-1 BRCA2, CTG detection; parameters: endogenous in cells; host or cells: DLD-1 wt and DLD-1 BRCA2 (-/-); conditions: Table 1, results of the cell-based assay; cell line (DLD-1 wt or DLD-1 BRCA2) not given
Method: Proliferation Assay (PARP Inhibitors) in DLD-1 wt and DLD-1 BRCA2
DLD-1-wt and DLD-1 mutant cells are cultured in RPMI 1640+10% FBS+1% PS. The cells are harvested into culture media for 2-3 days. The cells are diluted into culture media (density 2˜3×10^6) and 40 uL of cell suspension (50 cells/well for DLD-1 wt and 50 cells/well for DLD-1 BRCA (−/−). The plates are covered and spun at rt at 1000 rpm, for 1 minute and then transferred. The plates are placed into 37° C. 5% CO2 incubator overnight. Test compounds are dissolved at 10 mM DMSO stock solution and then 40 uL of stock solution is transferred to a 384 PP-plate. A 10-point dilution is carried out by transferring 10 uL compound into 30 μL DMSO by using TECAN (EVO200) liquid handler. The plates are spun at rt at 1000 rpm for 1 minute and then shaken on a plate shaker for 2 minutes. Forty nL of diluted compound is transferred into the cell plate by using a liquid handler. After 7 days of incubation, a CTG detection assay is performed. The CTG detection assay is carried out by removing the plates from the incubators and then equilibrated at rt for 15 minutes. The CellTiter Glo reagents are thawed and equilibrated at rt. CellTiter-Glo reagent (30 μL) is added into each well, and the plates are placed at rt for 30 minutes followed by reading on EnVision. The inhibition activity is calculated using the formula: % Inhibition=100×(LumHC−LumSample)/(LumHC−LumLC).
In Table 1, ‘A’ indicates an IC50 of <0.1 μM, ‘B’ indicates an IC50 of ≥0.1 μM and <1.0 μM, and ‘C’ indicates an IC50 of ≥1.0 μM. As shown by the results in Table 1, compounds of Formula (I), including pharmaceutically acceptable salts thereof, are effective PARP1 inhibitors.

PARP1 [2] = target: T1, PARP1; assay: biochemical assay (Table 2); FP binding assay (PARP1, PARP2) with PARPi-FL; conditions: Table 2, results of the biochemical assay
Method: FP Binding Assay (PARP1, PARP2)
The PARP1 and PARP 2 protein and the PARPi-FL were purchased from BPS Bioscience. The assay buffer was 50 mM Tris pH 8.0, 0.001% Triton X-100, 10 mM MgCl2, 150 mM NaCl. The compounds were diluted into top point concentration in 384PP-plate and transferred serially into an Optiplate-384F plate. Compound (20 nL) or DMSO was added to assay plate and then 10 uL of 40 nM PARP1 or PARP2 (diluted using assay buffer) was added. The assay plate was centrifuged at 1000 rpm for 1 min and then incubated for 30 min at rt. 6 nM PARPi-FL (diluted using assay buffer) (10 uL) was added to the plate (final concentration of PARP1 and PARP2 was 20 nM, and PARPi-FL was 3 nM). After centrifuging at 1000 rpm for 1 min, the assay plate was incubated at rt 4 h. The plates were read using Envision with Excitation filter. The data analysis was done by calculating the inhibition rate using mP value using the following equation. Inhibition (%)=(1−mpC−mpL)/mpH−mpL×100%.
As shown by the results in Table 2, compounds of Formula (I), including pharmaceutically acceptable salts thereof, are effective PARP1 inhibitors.

T1 sequence (P09874 whole entry): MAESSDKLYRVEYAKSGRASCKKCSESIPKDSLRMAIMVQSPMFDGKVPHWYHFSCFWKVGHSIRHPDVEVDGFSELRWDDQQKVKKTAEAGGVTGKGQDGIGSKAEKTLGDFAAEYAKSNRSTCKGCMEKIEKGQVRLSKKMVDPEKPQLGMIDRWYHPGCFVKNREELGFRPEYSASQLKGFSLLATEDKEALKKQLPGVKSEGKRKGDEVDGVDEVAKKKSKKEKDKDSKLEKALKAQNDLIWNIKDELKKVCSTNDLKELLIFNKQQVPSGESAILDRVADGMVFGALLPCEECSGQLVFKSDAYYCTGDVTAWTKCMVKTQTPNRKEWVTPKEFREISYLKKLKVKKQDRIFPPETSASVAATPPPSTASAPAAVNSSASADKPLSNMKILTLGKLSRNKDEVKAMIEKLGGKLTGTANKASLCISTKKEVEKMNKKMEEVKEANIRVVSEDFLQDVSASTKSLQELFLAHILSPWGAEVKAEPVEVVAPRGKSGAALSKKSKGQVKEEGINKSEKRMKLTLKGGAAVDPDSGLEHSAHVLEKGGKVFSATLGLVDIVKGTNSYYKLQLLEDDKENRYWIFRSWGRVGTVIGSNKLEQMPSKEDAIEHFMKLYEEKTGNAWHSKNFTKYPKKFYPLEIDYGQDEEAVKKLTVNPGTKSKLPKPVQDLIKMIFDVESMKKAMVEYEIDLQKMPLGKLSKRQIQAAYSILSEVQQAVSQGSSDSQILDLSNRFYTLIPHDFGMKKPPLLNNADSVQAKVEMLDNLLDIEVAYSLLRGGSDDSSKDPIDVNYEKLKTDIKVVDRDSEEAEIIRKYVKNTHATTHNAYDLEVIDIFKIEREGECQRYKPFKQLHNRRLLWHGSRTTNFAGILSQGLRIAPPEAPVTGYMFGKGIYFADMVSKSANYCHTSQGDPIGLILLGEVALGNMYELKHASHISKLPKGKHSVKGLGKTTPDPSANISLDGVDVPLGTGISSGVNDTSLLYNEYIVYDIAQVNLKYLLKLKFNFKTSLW

SMILES | IC50 (PARP1 [1]) [nM] | IC50 (PARP1 [2]) [nM]
CCC1Oc2ccc(CN3CCN(c4ccc(C(=O)NC)nc4F)CC3)c(F)c2NC1=O (single isomer, unassigned) [Compound 3aa] | < 100 | –
CCC1Oc2ccc(CN3CCN(c4ccc(C(=O)NC)nc4F)CC3)c(F)c2NC1=O (single isomer, unassigned) [Compound 3ab] | < 100 | –
CNC(=O)c1ccc(N2CCN(Cc3ccc4c(c3F)NC(=O)C3(CC3)O4)CC2)c(C)n1 [Compound A8] | < 100 | < 5
